Read-outs that look alike come from different tables or passages of the source.
Target: Protein arginine deiminase 4 (PAD4) (Homo sapiens, UniProt Q9UM07)
Test: PAD4 ammonia release assay
Format: biochemical
Procedure, shortened: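 Ammonia release from BAEE substrate (2× mix 600 μM) was measured after 60 min at RT, following 15 min enzyme–compound preincubation (PAD4 2× 20 nM; pH 8.0 HEPES, 2 mM CaCl2, TCEP; 1.25% DMSO). Detection used OPA/DTT/EDTA for 120 min. % inhibition was taken versus reference-compound and DMSO controls; IC50 by four-parameter logistic fit.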

[1] = PAD4 ammonia release assay, BAEE substrate, 60 min at RT, read-out: Average IC50 Abs
[2] = PAD4 activity comparison, read-out: PAD4 Ammonia assay IC50

Sequence of Protein arginine deiminase 4 (PAD4) (Q9UM07 whole entry): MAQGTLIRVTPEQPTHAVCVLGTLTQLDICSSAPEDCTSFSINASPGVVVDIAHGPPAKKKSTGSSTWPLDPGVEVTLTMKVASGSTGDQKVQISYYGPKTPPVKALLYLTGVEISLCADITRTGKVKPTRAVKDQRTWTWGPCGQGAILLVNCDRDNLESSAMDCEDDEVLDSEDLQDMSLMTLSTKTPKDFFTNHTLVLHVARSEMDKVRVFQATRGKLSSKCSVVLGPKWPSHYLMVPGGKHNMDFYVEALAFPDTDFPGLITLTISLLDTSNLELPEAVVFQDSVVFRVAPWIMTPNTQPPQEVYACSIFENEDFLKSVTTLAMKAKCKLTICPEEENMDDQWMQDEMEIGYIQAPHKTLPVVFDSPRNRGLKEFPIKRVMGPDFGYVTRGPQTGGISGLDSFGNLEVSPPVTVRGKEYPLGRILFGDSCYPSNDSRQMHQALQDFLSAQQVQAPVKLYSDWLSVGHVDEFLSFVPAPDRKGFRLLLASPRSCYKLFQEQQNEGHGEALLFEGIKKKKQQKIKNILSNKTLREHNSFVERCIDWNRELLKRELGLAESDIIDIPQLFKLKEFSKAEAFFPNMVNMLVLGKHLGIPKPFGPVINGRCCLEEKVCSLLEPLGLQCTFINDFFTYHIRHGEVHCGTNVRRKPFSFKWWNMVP

IC50 [1] [nM] | IC50 [2] [nM] | Compound
500 to 5000 |  | Cn1c(-c2cc3ccc4c(c3n2CC2CC2)NC(=O)C4(C)C)nc2cc(C(=O)N3C[C@H]4CC[C@@H]3[C@@H]4N)cc(F)c21 [Example 141, 7-(5-((1R,4R,7R)-7-amino-2-azabicyclo[2.2.1]heptane-2-carbonyl)-7-fluoro-1-methyl-1H-benzo[d]imidazol-2-yl)-8-(cyclopropylmethyl)-3,3-dimethyl-3,8-dihydropyrrolo[3,2-g]indol-2(1H)-one]
500 to 5000 |  | Cn1c(-c2cc3ccc4c(c3n2CC2CC2)NCC4(C)C)nc2cc(C(=O)N3C[C@H]4CC[C@@H]3[C@@H]4N)cc(F)c21 [Example 142, ((1R,4R,7R)-7-amino-2-azabicyclo[2.2.1]heptan-2-yl)(2-(1-(cyclopropylmethyl)-6,6-dimethyl-1,6,7,8-tetrahydropyrrolo[3,2-g]indol-2-yl)-7-fluoro-1-methyl-1H-benzo[d]imidazol-5-yl)methanone]
100 to 500 |  | Cn1c(-c2cc3ccc4c(c3n2CC2CC2)CCN4)nc2cc(C(=O)N3C[C@H]4CC[C@@H]3[C@@H]4N)cc(F)c21 [Example 143, ((1R,4R,7R)-7-amino-2-azabicyclo[2.2.1]heptan-2-yl)(2-(1-(cyclopropylmethyl)-1,6,7,8-tetrahydropyrrolo[2,3-e]indol-2-yl)-7-fluoro-1-methyl-1H-benzo[d]imidazol-5-yl)methanone]
100 to 500 |  | Cn1c(-c2cc3ccc4[nH]ccc4c3n2CC2CC2)nc2cc(C(=O)N3C[C@H]4CC[C@@H]3[C@@H]4N)cc(F)c21 [Example 144, ((1R,4R,7R)-7-amino-2-azabicyclo[2.2.1]heptan-2-yl)(2-(1-(cyclopropylmethyl)-1,6-dihydropyrrolo[2,3-e]indol-2-yl)-7-fluoro-1-methyl-1H-benzo[d]imidazol-5-yl)methanone]
500 to 5000 |  | Cn1c(-c2cc3ccc4c(c3n2CC2CC2)CC(=O)N4)nc2cc(C(=O)N3C[C@H]4CC[C@@H]3[C@@H]4N)cc(F)c21 [Example 145, 2-(5-((1R,4R,7R)-7-amino-2-azabicyclo[2.2.1]heptane-2-carbonyl)-7-fluoro-1-methyl-1H-benzo[d]imidazol-2-yl)-1-(cyclopropylmethyl)-6,8-dihydropyrrolo[2,3-e]indol-7(1H)-one]
> 5000 |  | CN1C(=O)Cc2c1ccc1cc(-c3nc4cc(C(=O)N5C[C@H]6CC[C@@H]5[C@@H]6N)cc(F)c4n3C)n(CC3CC3)c21 [Example 146, 2-(5-((1R,4R,7R)-7-amino-2-azabicyclo[2.2.1]heptane-2-carbonyl)-7-fluoro-1-methyl-1H-benzo[d]imidazol-2-yl)-1-(cyclopropylmethyl)-6-methyl-6,8-dihydropyrrolo[2,3-e]indol-7(1H)-one]
500 to 5000 |  | Cn1c(-c2cc3ccc4c(Cl)c[nH]c4c3n2CC2CC2)nc2cc(C(=O)N3C[C@H]4CC[C@@H]3[C@@H]4N)cc(F)c21 [Example 149, ((1R,4R,7R)-7-amino-2-azabicyclo[2.2.1]heptan-2-yl)(2-(6-chloro-1-(cyclopropylmethyl)-1,8-dihydropyrrolo[3,2-g]indol-2-yl)-7-fluoro-1-methyl-1H-benzo[d]imidazol-5-yl)methanone]
100 to 500 |  | Cn1c(-c2cc3ccn4ccnc4c3n2CC2CC2)nc2cc(C(=O)N3C[C@H]4CC[C@@H]3[C@@H]4N)cc(F)c21 [Example 150, ((1R,4R,7R)-7-amino-2-azabicyclo[2.2.1]heptan-2-yl)(2-(9-(cyclopropylmethyl)-9H-imidazo[1,2-a]pyrrolo[2,3-c]pyridin-8-yl)-7-fluoro-1-methyl-1H-benzo[d]imidazol-5-yl)methanone]
500 to 5000 |  | Cn1c(-c2cc3ccc4c(c3n2CC2CC2)CCNC4)nc2cc(C(=O)N3C[C@H]4CC[C@@H]3[C@@H]4N)cc(F)c21 [Example 151, ((1R,4R,7R)-7-amino-2-azabicyclo[2.2.1]heptan-2-yl)(2-(1-(cyclopropylmethyl)-6,7,8,9-tetrahydro-1H-pyrrolo[2,3-f]isoquinoline-2-yl)-7-fluoro-1-methyl-1H-benzo[d]imidazol-5-yl)methanone]
100 to 500 |  | CN1CCc2c(ccc3cc(-c4nc5cc(C(=O)N6C[C@H]7CC[C@@H]6[C@@H]7N)cc(F)c5n4C)n(CC4CC4)c23)C1 [Example 152, ((1R,4R,7R)-7-amino-2-azabicyclo[2.2.1]heptan-2-yl)(2-(1-(cyclopropylmethyl)-7-methyl-6,7,8,9-tetrahydro-1H-pyrrolo[2,3-f]isoquinolin-2-yl)-7-fluoro-1-methyl-1H-benzo[d]imidazol-5-yl)methanone]
500 to 5000 |  | CC(C)N1CCc2c(ccc3cc(-c4nc5cc(C(=O)N6C[C@H]7CC[C@@H]6[C@@H]7N)cc(F)c5n4C)n(CC4CC4)c23)C1 [Example 154, ((1R,4R,7R)-7-amino-2-azabicyclo[2.2.1]heptan-2-yl)(2-(1-(cyclopropylmethyl)-7-isopropyl-6,7,8,9-tetrahydro-1H-pyrrolo[2,3-f]isoquinolin-2-yl)-7-fluoro-1-methyl-1H-benzo[d]imidazol-5-yl)methanone]
100 to 500 |  | Cn1c(-c2cc3ccc4c(c3n2CC2CC2)CCN(C2CC2)C4)nc2cc(C(=O)N3C[C@H]4CC[C@@H]3[C@@H]4N)cc(F)c21 [Example 155, ((1R,4R,7R)-7-amino-2-azabicyclo[2.2.1]heptan-2-yl)(2-(7-cyclopropyl-1-(cyclopropylmethyl)-6,7,8,9-tetrahydro-1H-pyrrolo[2,3-f]isoquinolin-2-yl)-7-fluoro-1-methyl-1H-benzo[d]imidazol-5-yl)methanone]
500 to 5000 |  | Cc1nnc2c3c(ccn12)cc(-c1nc2cc(C(=O)N4C[C@H]5CC[C@@H]4[C@@H]5N)cc(F)c2n1C)n3CC1CC1 [Example 159, [(1R,4R,7R)-7-amino-2-azabicyclo[2.2.1]heptan-2-yl]-[2-[12-(cyclopropylmethyl)-5-methyl-3,4,6,12-tetrazatricyclo[7.3.0.02,6]dodeca-1(9), 2,4,7,10-pentaen-11-yl]-7-fluoro-1-methyl-benzimidazol-5-yl]methanone]
500 to 5000 |  | Cn1c(-c2cc3ccn4c(=O)[nH]nc4c3n2CC2CC2)nc2cc(C(=O)N3C[C@H]4CC[C@@H]3[C@@H]4N)cc(F)c21 [Example 160, 8-(5-((1R,4R,7R)-7-amino-2-azabicyclo[2.2.1]heptane-2-carbonyl)-7-fluoro-1-methyl-1H-benzo[d]imidazol-2-yl)-9-(cyclopropylmethyl)-2,9-dihydro-3H-pyrrolo[2,3-c][1,2,4]triazolo[4,3-a]pyridin-3-one]
500 to 5000 |  | Cn1c(-c2cc3ccc4c(c3n2CC2CC2)NCC[S+]4[O-])nc2cc(C(=O)N3C[C@H]4CC[C@@H]3[C@@H]4N)cc(F)c21 (stereo partly drawn) [Example 162, ((1R,4R,7R)-7-amino-2-azabicyclo[2.2.1]heptan-2-yl)(2-(9-(cyclopropylmethyl)-4-oxido-1,2,3,9-tetrahydro-[1,4]thiazino[2,3-g]indol-8-yl)-7-fluoro-1-methyl-1H-benzo[d]imidazol-5-yl)methanone]
100 to 500 |  | Cn1c(-c2cc3ccc4c(c3n2CC2CC2)CCCN4)nc2cc(C(=O)N3C[C@H]4CC[C@@H]3[C@@H]4N)cc(F)c21 [Example 163, ((1R,4R,7R)-7-amino-2-azabicyclo[2.2.1]heptan-2-yl)(2-(1-(cyclopropylmethyl)-6,7,8,9-tetrahydro-1H-pyrrolo[2,3-f]quinolin-2-yl)-7-fluoro-1-methyl-1H-benzo[d]imidazol-5-yl)methanone]
≤ 100 |  | Cn1c(-c2cc3ccc4cc[nH]c4c3n2CC2CCC2)nc2cc(C(=O)N3C[C@H]4CC[C@@H]3[C@@H]4N)cc(F)c21 [Example 165, ((1R,4R,7R)-7-amino-2-azabicyclo[2.2.1]heptan-2-yl)(2-(1-(cyclobutylmethyl)-1,8-dihydropyrrolo[3,2-g]indol-2-yl)-7-fluoro-1-methyl-1H-benzo[d]imidazol-5-yl)methanone]
> 5000 | 9530 | Cn1c(-c2cc3cccc4c3n2CCN4)nc2cc(C(=O)N3CCC[C@@H](N)C3)ccc21 [Example 166, (R)-(3-aminopiperidin-1-yl)(2-(2,3-dihydro-1H-pyrrolo[1,2,3-de]quinoxalin-5-yl)-1-methyl-1H-benzo[d]imidazol-5-yl)methanone]
500 to 5000 | 4090 | CC1CNc2cccc3cc(-c4nc5cc(C(=O)N6CCC[C@@H](N)C6)ccc5n4C)n1c23 (stereo partly drawn) [Example 167, ((R)-3-aminopiperidin-1-yl)(1-methyl-2-(3-methyl-2,3-dihydro-1H-pyrrolo[1,2,3-de]quinoxalin-5-yl)-1H-benzo[d]imidazol-5-yl)methanone]
500 to 5000 | 2310 | Cn1c(-c2cc3cccc4c3n2CCN4)nc2cc(C(=O)N3C[C@H]4CC[C@@H]3[C@@H]4N)ccc21 [Example 168, ((1R,4R,7R)-7-amino-2-azabicyclo[2.2.1]heptan-2-yl)(2-(2,3-dihydro-1H-pyrrolo[1,2,3-de]quinoxalin-5-yl)-1-methyl-1H-benzo[d]imidazol-5-yl)methanone]
500 to 5000 | 550 | CC1CNc2cccc3cc(-c4nc5cc(C(=O)N6C[C@H]7CC[C@@H]6[C@@H]7N)ccc5n4C)n1c23 (stereo partly drawn) [Example 169, ((1R,4R,7R)-7-amino-2-azabicyclo[2.2.1]heptan-2-yl)(1-methyl-2-(3-methyl-2,3-dihydro-1H-pyrrolo[1,2,3-de]quinoxalin-5-yl)-1H-benzo[d]imidazol-5-yl)methanone]
> 5000 |  | COc1cc(C(=O)N2C[C@H]3CC[C@@H]2[C@@H]3N)cc2nc(-c3cc4cccc5c4n3C(C3CC3)CN5)c(C)n12 (stereo partly drawn) [Example 170, ((1R,4R,7R)-7-amino-2-azabicyclo[2.2.1]heptan-2-yl)(2-(3-cyclopropyl-2,3-dihydro-1H-pyrrolo[1,2,3-de]quinoxalin-5-yl)-5-methoxy-3-methylimidazo[1,2-a]pyridin-7-yl)methanone]
